Source: patent EP1079840B1, “SYNERGISTIC COMPOSITION OF INULIN AND AN ANTI-CANCER DRUG FOR USE IN THE TREATMENT OF CANCER” (Tiense Suikerraffinaderij N.V. (Raffinerie Tirlemontoise …, priority 1998, dated 1999)

Tested on: ascitic form of a transplantable mouse liver tumor (TLT)
Experiment: Survival (increase of life span) of mice bearing the intraperitoneally transplanted ascitic TLT tumor
Format: in vivo, NMRI male mice
Conditions: for therapeutic effect (character of chemotherapy potentiating effect): cytotoxic drug combined with dietary FOS or inulin
From the text: Viable, neoplastic cells (10^6) from the ascitic form of a transplantable mouse liver tumor (TLT) (Taper, 1966 and Cappucino, 1966) were intraperitoneally transplanted into 12 per group young adult NMRI male mice weighing about 30 g, supplied by "Animalerie Facultaire", UCL, Brussels. Mice of the experimental groups were fed with a basal diet supplemented with 15 % FOS or inulin starting 7 days before tumor transplantation up to the end of the experiment. Control animals received the basal diet for experimental animals AO4 furnished by UAR, Villemoisson sur Orge, France, and water ad libitum.
A single, subtherapeutic dose of cytotoxic drugs was intraperitoneally injected 48 hours after intraperitoneal TLT tumor transplantation at following doses: endoxan 80 mg/kg; adriamycin 0.1 mg/kg; oncovin 0.5 mg/kg and 5-fluorouracil 40 mg/kg.
The criteria for the evaluation of results were the mortality rates expressed by mean survival time (MST) and the percentage of increase of life span (ILS) in experimental groups compared with the controls, calculated according to the NCI instructions (Geron et al., 1972). The results of each experiment were confirmed by another experiment performed at another time and were cumulatively calculated (as presented in Table 1). The results concerning the survival rates of mice bearing the ascitic form of a TLT tumor, observed in 2 separately performed experiments on each type of anti-cancer drug (12 mice per group), are cumulatively presented in Table 1 below.
In a further experiment, carried out in a similar manner as the previous experiment, the effects were examined of a composition according to the invention, containing a combination of the anti-metabolite anti-cancer drug methotrexate and inulin or FOS, in comparison with the effects of the single components. The effects were evaluated via the survival criteria of N.M.RI mice bearing ascitic TLT tumors, treated with a single i.p. dose of 20 mg/kg methotrexate (10 investigated mice in each group) and the results are presented in Table 2 below.

[1] = increase of life span vs own untreated control group, 15 % FOS or inulin in diet from 7 days before transplantation, single i.p. dose 48 hours after transplantation: endoxan 80 mg/kg, adriamycin 0.1 mg/kg, oncovin 0.5 mg/kg, 5-fluorouracil 40 mg/kg, 2 experiments cumulated

Compound	therapeutic effect (character of chemotherapy potentiating effect)	ILS (%) [1]	ILS (%) (Table 2, methotrexate single i.p. dose of 20 mg/kg, dietary FOS or inulin, 10 mice in each group)
O=c1[nH]cc(F)c(=O)[nH]1 [5-Fluorouracil, 5-fluorouracil]	synergistic	18.75%	
COc1cccc2c1C(=O)c1c(O)c3c(c(O)c1C2=O)C[C@@](O)(C(=O)CO)C[C@@H]3O[C@H]1C[C@H](N)[C@H](O)[C@H](C)O1 [Adriamycin, adriamycin]	additive	14.7%	
O=P1(N(CCCl)CCCl)NCCCO1 (stereo not drawn) [Endoxan, cyclophosphamide]	additive	0%	
CC[C@]1(O)C[C@H]2CN(CCc3c([nH]c4ccccc34)[C@@](C(=O)OC)(c3cc4c(cc3OC)N(C=O)[C@H]3[C@@](O)(C(=O)OC)[C@H](OC(C)=O)[C@]5(CC)C=CCN6CC[C@]43[C@@H]65)C2)C1 [Oncovin, vincristine sulphate]	additive	33.33%	
CN(Cc1cnc2nc(N)nc(N)c2n1)c1ccc(C(=O)N[C@@H](CCC(=O)O)C(=O)O)cc1 [methotrexate]			2%
